Source: patent US20240197938A1, “ANTIMICROBIAL COMPOUNDS BASED ON GLUCOHEPTONIC ACIDS AND THEIR SALTS” (HARCROS CHEMICALS, INC., priority 2021, published 2024)

Columns and labels:
Format in all cases: cell-based
[1] = test system: all microbes (Candida albicans, Staphylococcus aureus, Staphylococcus epidermidis, Escherichia coli, Salmonella abony, Listeria monocytogenes); assay: ASTM E2315-16 Time-Kill Procedure, average across all microbes; conditions: for Log Reduction, Average, all microbes: 30 seconds; for average Log Reduction (LR) in microbial population across all microbes: 10 minutes
Method: (§1) Select compounds were tested for antimicrobial activity using ASTM method […]-16 (Standard Guide for Assessment of Antimicrobial Activity using a Time-Kill Procedure). Six microbes were tested: Candida albicans, Staphylococcus aureus, Staphylococcus epidermidis. Escherichia coli, Salmonella abony, and Listeria monocytogenes. Four chlorhexidine salts were tested: chlorhexidine di-α-glucoheptonate (Sample G), chlorhexidine di-β73-glucoheptonate (Sample H), chlorhexidine digluconate (Sample I), and chlorhexidine diacetate (Sample P). Both chlorhexidine diglucoheptonate salts were prepared at a 2:1 molar ratio of glucoheptonic acid to chlorhexidine. Dilutions of each salt were prepared using sterile water (20-30 ppm hardness), to achieve the desired wt. % concentration. Samples G, H, I, and P were also tested at a concentration of 0.60 wt % active and evaluated for the average Log Reduction in microbial population at 10 minutes, across all microbes. A further test was conducted at a concentration of 1.0 wt % active and evaluated for the average Log Reduction in microbial population at 10 minutes, across all microbes. Benzalkonium salts were also tested using the same procedure as set forth in Example 13. The samples were benzalkonium chloride (C12-C16) (Sample C), benzalkonium chloride (C12-C14) (Sample D), benzalkonium chloride in combination with a stoichiometric amount of α-glucoheptonate (Sample F), and benzalkonium chloride in combination with a molar excess of α-glucoheptonate (Sample N). Sample F was prepared by mixing and extensively heating a stoichiometric quantity (1:1) of sodium α-glucoheptonate with benzalkonium chloride, typified by the C12-14 alkyl chain. Sample N was prepared by simply blending benzalkonium chloride, typified by the C12-16 chain, with a molar excess of sodium α-glucoheptonate (1.6:1). Both Samples F and N contain sodium chloride. A further antimicrobial test was conducted to determine the log reduction at 10 minutes. Samples C, D, F, and N are as defined above.

Listeria monocytogenes = assay: ASTM E2315-16 Time-Kill Procedure; conditions: for Log Reduction: 30 seconds
Method: as §1, with “concentration.” for “concentration. Samples G, H, I, and P were also tested at a concentration of 0.60 wt % active and evaluated for the average Log Reduction in microbial population at 10 minutes, across all microbes. A further test was conducted at a concentration of 1.0 wt % active and evaluated for the average Log Reduction in microbial population at 10 minutes, across all microbes.”, “chloride.” for “chloride. A further antimicrobial test was conducted to determine the log reduction at 10 minutes. Samples C, D, F, and N are as defined above.”

Escherichia coli = assay: ASTM E2315-16 Time-Kill Procedure; conditions: 30 seconds
Method: as §1, with “concentration.” for “concentration. Samples G, H, I, and P were also tested at a concentration of 0.60 wt % active and evaluated for the average Log Reduction in microbial population at 10 minutes, across all microbes. A further test was conducted at a concentration of 1.0 wt % active and evaluated for the average Log Reduction in microbial population at 10 minutes, across all microbes.”, “chloride.” for “chloride. A further antimicrobial test was conducted to determine the log reduction at 10 minutes. Samples C, D, F, and N are as defined above.”

Salmonella abony = assay: ASTM E2315-16 Time-Kill Procedure; conditions: 30 seconds
Method: as §1, with “concentration.” for “concentration. Samples G, H, I, and P were also tested at a concentration of 0.60 wt % active and evaluated for the average Log Reduction in microbial population at 10 minutes, across all microbes. A further test was conducted at a concentration of 1.0 wt % active and evaluated for the average Log Reduction in microbial population at 10 minutes, across all microbes.”, “chloride.” for “chloride. A further antimicrobial test was conducted to determine the log reduction at 10 minutes. Samples C, D, F, and N are as defined above.”

Staphylococcus aureus = assay: ASTM E2315-16 Time-Kill Procedure; conditions: 30 seconds
Method: (§2) Select compounds were tested for antimicrobial activity using ASTM method […]-16 (Standard Guide for Assessment of Antimicrobial Activity using a Time-Kill Procedure). Six microbes were tested: Candida albicans, Staphylococcus aureus, Staphylococcus epidermidis. Escherichia coli, Salmonella abony, and Listeria monocytogenes. Four chlorhexidine salts were tested: chlorhexidine di-α-glucoheptonate (Sample G), chlorhexidine di-β73-glucoheptonate (Sample H), chlorhexidine digluconate (Sample I), and chlorhexidine diacetate (Sample P). Both chlorhexidine diglucoheptonate salts were prepared at a 2:1 molar ratio of glucoheptonic acid to chlorhexidine. Dilutions of each salt were prepared using sterile water (20-30 ppm hardness), to achieve the desired wt. % concentration. Two glucoheptonic acids were evaluated for antimicrobial activity against the same six microbes as Example 13. Sample L was α-glucoheptonic acid. Sample M was β73-glucoheptonic acid. Benzalkonium salts were also tested using the same procedure as set forth in Example 13. The samples were benzalkonium chloride (C12-C16) (Sample C), benzalkonium chloride (C12-C14) (Sample D), benzalkonium chloride in combination with a stoichiometric amount of α-glucoheptonate (Sample F), and benzalkonium chloride in combination with a molar excess of α-glucoheptonate (Sample N). Sample F was prepared by mixing and extensively heating a stoichiometric quantity (1:1) of sodium α-glucoheptonate with benzalkonium chloride, typified by the C12-14 alkyl chain. Sample N was prepared by simply blending benzalkonium chloride, typified by the C12-16 chain, with a molar excess of sodium α-glucoheptonate (1.6:1). Both Samples F and N contain sodium chloride.

[2] = test system: Staphylococcus epidermidis; assay: ASTM E2315-16 Time-Kill Procedure; conditions: for Log Reduction: 30 seconds
Method: as §2

Candida albicans = assay: ASTM E2315-16 Time-Kill Procedure; conditions: for Log Reduction: 30 seconds; for Log Reduction (LR): contact time 10 minutes
Method: as §2

Structure (SMILES)	Log Reduction, Average, all microbes ([1]; 0.20% (wt. %))	Log Reduction, Average, all microbes ([1]; 0.60% (wt. %))	Log Reduction, Average, all microbes ([1]; 1.00% (wt. %))	average Log Reduction (LR) in microbial population across all microbes ([1]; 0.60 wt % active)	average Log Reduction (LR) in microbial population across all microbes ([1]; 1.0 wt % active)	Log Reduction (Listeria monocytogenes; 0.20% (wt. %))	Log Reduction (Listeria monocytogenes; 0.60% (wt. %))	Log Reduction (Listeria monocytogenes; 1.00% (wt. %))	Log Reduction (Escherichia coli; 0.20% (wt. %))	Log Reduction (Escherichia coli; 0.60% (wt. %))	Log Reduction (Escherichia coli; 1.00% (wt. %))	Log Reduction (Salmonella abony; 0.20% (wt. %))	Log Reduction (Salmonella abony; 0.60% (wt. %))	Log Reduction (Salmonella abony; 1.00% (wt. %))	Log Reduction (Staphylococcus aureus; 0.20% (wt. %))	Log Reduction (Staphylococcus aureus; 0.60% (wt. %))	Log Reduction (Staphylococcus aureus; 1.00% (wt. %))	Log Reduction ([2]; 0.20% (wt. %))	Log Reduction ([2]; 0.60% (wt. %))	Log Reduction ([2]; 1.00% (wt. %))	other results
N=C(NCCCCCCNC(=N)NC(=N)Nc1ccc(Cl)cc1)NC(=N)Nc1ccc(Cl)cc1.O=C(O)C(O)C(O)C(O)C(O)C(O)CO.O=C(O)C(O)C(O)C(O)C(O)C(O)CO [Sample G, chlorhexidine di-α-glucoheptonate]	1.74	2.12	3.90	3.85	5.34	1.34	1.49	4.99	3.57	3.66	3.77	3.04	3.14	3.39	0.77	1.07	3.06	0.95	1.91	3.65	performance in the Time-Kill Test (Listeria monocytogenes; in words): performed very strongly; Log Reduction (Candida albicans; 0.20% (wt. %)): 0.75; Log Reduction (Candida albicans; 0.60% (wt. %)): 1.45; Log Reduction (Candida albicans; 1.00% (wt. %)): 4.56; performance in the Time-Kill Test (Candida albicans; in words): performed very strongly
N=C(NCCCCCCNC(=N)NC(=N)Nc1ccc(Cl)cc1)NC(=N)Nc1ccc(Cl)cc1.O=C(O)[C@H](O)[C@@H](O)[C@H](O)[C@H](O)CO.O=C(O)[C@H](O)[C@@H](O)[C@H](O)[C@H](O)CO [Sample I, chlorhexidine digluconate]	2.24	3.22	3.85	4.84	5.46	1.99	3.13	3.91	2.93	3.07	3.27	1.86	2.63	2.89	1.77	3.07	3.37	2.00	3.08	3.25	Log Reduction (Candida albicans; 0.20% (wt. %)): 2.91; Log Reduction (Candida albicans; 0.60% (wt. %)): 4.35; Log Reduction (Candida albicans; 1.00% (wt. %)): 6.40
O=C(O)[C@H](O)[C@H](O)[C@@H](O)[C@H](O)[C@H](O)CO [Sample L, α-glucoheptonic acid]	–	–	–	–	–	–	–	–	–	–	–	–	–	–	–	–	–	–	–	–	Log Reduction (LR) ([2]; 2.5 % w/w, contact time 10 minutes): 3.39; Log Reduction (LR) ([2]; 5.0 % w/w, contact time 5 minutes): 3.05; Log Reduction (LR) ([2]; 5.0 % w/w, contact time 10 minutes): 3.50; Log Reduction (LR) (Candida albicans; 2.5 % w/w): 3.65; Log Reduction (LR) (Candida albicans; 5.0 % w/w): 3.00
